Data on one compound can be found in patent publication US12582706B2, “Tolerogenic antigen presenting cells” (Cell4Cure AB, priority 2019, dated 2026).

The subject of the assay is DCs. Kind of assay: DC expression of CD103 (flow cytometry). Type of assay: cell-based, human. The note with it: Example 13, FIG. 13(E); compared to control DCs. The protocol:
CD14^+ monocytes were cultured at 1.25×10^6 cells/mi for 7 days in GMP DC Medium (CellGenix, Freiburg, Germany) containing HEPES, GlutaMAX and Penicillin-Streptomycin solution (Thermo Fisher, Waltham, MA) in the presence of granulocyte-macrophage colony-stimulating factor (GM-CSF; 100 ng/ml; PeproTech, London, UK) and interleukin-4 (IL-4; 100 ng/ml; PeproTech). Cells were replenished on day 3 with fresh medium and cytokines. […]
Cell surface expression was investigated using the following fluorescently labeled antibodies: CD11c (B-Ly6), CD83 (HB15e), CD86 (BU63), ILT3 (ZM4.1), CD141 (M80), GARP (7611), CD103 (B-Ly7), MERTK (590H11G1E3), BTLA (J168-540), CD49b (P1E6-05), HLA-G (87G), LAP (FNLAP), from BD Biosciences (Franklin Lakes, NJ), BioLegend (San Diego, CA) and Thermo Fisher. DCs were washed and resuspended in staining buffer (phosphate-buffered saline supplemented with 0.5% BSA and 2 mM EDTA) and incubated with antibody for 20 min followed by washing before acquisition on a MACSQuant 10 flow cytometer (Miltenyi Biotec) and analyzed using FlowJo software (BD Biosciences). […]
In general terms: Flow cytometry measures light scatter and fluorescence of single cells or particles in a stream.

For `CCN(C(=O)c1c(O)c2c(Cl)cccc2n(C)c1=O)c1ccccc1` [AhR agonist, N-ethyl-N-phenyl-5-chloro-1,2-dihydro-4-hydroxy-1-methyl-2-oxo-quinoline-3-carboxamide], the “CD103 expression (MFI) on DCs” value is on record as “higher expression of CD103”.
